The values that follow come from US10787476B2, “Glycoamino acid and use thereof” (AJINOMOTO CO., INC., priority 2013, dated 2020).

Data set [1] is described as follows: Dissolution rate in stirring water. Particulars: for dissolution rate: inside temperature 34° C., n=2. The data set is classed as physicochemical. The protocol:
Leu and Glc-Leu were each added to stirring water (inside temperature 34° C.) in a hot-water bath at 35° C., and the dissolution rate was measured. The amount of the sample added and the measurement results are as shown below (n=2). As compared to Leu, Glc-Leu was dissolved 46 times faster in equal weight and 17 times faster in equimolar amount.

A short description of data set [2]: Heat stability of aqueous Glc-Leu solution (free Leu by HPLC). Format: physicochemical. Particulars: aqueous solution 100 mg/dl; for Leu liberated: 90° C. The protocol:
On the other hand, free Leu was not confirmed at 60° C. even after 72 hr, and sufficient heat stability as an amino acid precursor was shown.

A further data set relates to α/β-glucosidase. Put plainly: Glucosidase treatment, amino acid production amount by HPLC. The data set is classed as in vitro ADME. The note with it: phosphate buffer pH 5.5, 37° C., 30 min later. The protocol:
Glc-Phe, Glc-Leu, Glc-Lys, Glc-Glu and Glc-DOPA were each dissolved in phosphate buffer (pH 5.5) at the ratio shown in Table 2, α/β-glucosidase in the amount shown in Table 2 was added, and the mixture was stirred in a hot-water bath at 37° C. The mixture was diluted 2-fold with 1% aqueous phosphoric acid solution, and analyzed by HPLC. […] As for Glc-Leu, about 80% of leucine was liberated 1 hr later; as for Glc-Lys, about 20% of lysine was liberated 1 hr later; as for Glc-Glu, about 40% of glutamic acid was liberated 1 hr later; and as for Glc-DOPA, about 70% of 3,4-dihydroxyphenylalanine was liberated 1 hr later.

The mark [3] stands for this setting: equivalent weight, 300 mg/25 ml water.

As for `CC(C)C[C@H](NC(=O)OC1O[C@H](CO)[C@@H](O)[C@H](O)[C@H]1O)C(=O)O` (stereo partly drawn) [Glc-Leu, N-(α/β-D-glucopyranosyloxycarbonyl)-L-leucine], in data set [1] (setting [3]), the dissolution rate is 26 s. For the same compound, the “dissolved faster as compared to Leu” value came to 46 times in data set [1] (in equal weight) and 17 times in data set [1] (in equimolar amount). Besides, in data set [2] (60° C., after 72 hr), the “free Leu” value was “not confirmed”. Moreover, the results for the Leu liberated entry in data set [2] (72 hr) and in data set [2] (about 6 hr) were “liberated almost completely” and “about 50%”, respectively.
Turning to `O=C(N[C@@H](Cc1ccccc1)C(=O)O)OC1O[C@H](CO)[C@@H](O)[C@H](O)[C@H]1O` (stereo partly drawn) [Glc-Phe, N-(α/β-D-glucopyranosyloxycarbonyl)-L-phenylalanine], the remaining glycoamino acid entry with α/β-glucosidase is recorded as “almost disappeared”.
With `CC(C)C[C@H](N)C(=O)O` [Leu, L-leucine, reference compound], the dissolution rate result is recorded as “(450 sec)” in data set [1] (equimolar amount to glycoamino acid, 111 mg (0.85 mmol)/25 ml water) and “(1203 sec)” in data set [1] (setting [3]).
